Like-named read-outs stand apart in the source and are kept apart here. Square brackets hold non-standard residues; d marks the D form. Peptide text beside a SMILES is read from it. * marks the point of attachment. dPhe(4-NO2) = N[C@H](Cc1ccc([N+](=O)[O-])cc1)C(=O)O; dPhe(4-Me) = Cc1ccc(C[C@@H](N)C(=O)O)cc1; Cys(free,S-linked) = N[C@@H](CS*)C(=O)O; d2Nal = N[C@H](Cc1ccc2ccccc2c1)C(=O)O; dChg = N[C@@H](C(=O)O)C1CCCCC1; dTle = CC(C)(C)[C@@H](N)C(=O)O
Target: T1, human calcium-sensing receptor (CaSR) (Homo sapiens, UniProt P41180)
T1 construct: host or cells: HEK293
T1 sequence (P41180 20-1078): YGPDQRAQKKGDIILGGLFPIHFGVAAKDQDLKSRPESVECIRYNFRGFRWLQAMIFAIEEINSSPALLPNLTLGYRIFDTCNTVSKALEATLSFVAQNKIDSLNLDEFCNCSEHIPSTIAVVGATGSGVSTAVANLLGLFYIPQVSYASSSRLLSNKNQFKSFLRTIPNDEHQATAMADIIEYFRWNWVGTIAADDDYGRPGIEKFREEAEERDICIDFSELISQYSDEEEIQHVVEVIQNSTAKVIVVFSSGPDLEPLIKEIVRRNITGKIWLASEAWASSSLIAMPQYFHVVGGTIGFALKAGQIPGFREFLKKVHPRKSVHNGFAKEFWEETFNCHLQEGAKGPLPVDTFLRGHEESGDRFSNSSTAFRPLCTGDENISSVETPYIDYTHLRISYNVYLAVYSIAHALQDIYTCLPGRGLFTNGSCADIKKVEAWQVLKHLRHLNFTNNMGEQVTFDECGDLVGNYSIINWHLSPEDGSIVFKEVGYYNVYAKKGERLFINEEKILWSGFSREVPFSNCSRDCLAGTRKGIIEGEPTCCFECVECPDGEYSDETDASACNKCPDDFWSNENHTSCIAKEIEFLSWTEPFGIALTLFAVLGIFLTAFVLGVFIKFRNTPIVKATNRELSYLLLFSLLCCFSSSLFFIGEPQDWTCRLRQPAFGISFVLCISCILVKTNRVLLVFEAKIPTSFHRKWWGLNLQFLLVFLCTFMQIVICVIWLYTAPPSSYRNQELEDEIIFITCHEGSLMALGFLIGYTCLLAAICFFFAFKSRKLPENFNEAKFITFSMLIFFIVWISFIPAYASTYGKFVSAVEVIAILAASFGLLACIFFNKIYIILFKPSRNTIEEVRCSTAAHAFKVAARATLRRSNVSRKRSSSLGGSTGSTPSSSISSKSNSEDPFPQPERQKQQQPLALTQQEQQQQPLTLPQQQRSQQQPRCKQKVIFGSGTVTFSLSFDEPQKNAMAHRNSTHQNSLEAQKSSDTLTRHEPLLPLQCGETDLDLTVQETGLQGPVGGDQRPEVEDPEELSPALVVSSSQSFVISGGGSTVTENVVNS
Assay: Agonist activity on human calcium-sensing receptor (IP-One HTRF in stably transfected HEK293/CaSR cells)
Type: cell-based
Description: 3.1.1 Objective: The test example is intended to measure the agonist activity of compounds 1-38 on the human calcium-sensing receptor (CaSR).
Stably transfected HEK293/CaSR cells (source: Pharmaron) were cultured in a complete medium (composition: DMEM, high glucose+10% FBS+2 mM GlutaMAX+1× Penicillin-Streptomycin+200 μg/mL Hygromycin B) and incubated at 37° C./5% CO2 till 70%-90% cell confluence. The cells were digested with TrypLE, inoculated into 384-well cell culture plates, and cultured overnight at 37° C./5% CO2. After buffer exchange, stimulation buffer (HEPES 10 mM, MgCl2 0.5 mM, KCl 4.2 mM, NaCl 146 mM, glucose 5.5 mM, LiCl 50 mM, CaCl2 1.2 mM) and various concentrations of the test example compounds were added and incubated at 37° C. for 60 min. Production of IP-One in cells was detected according to the procedures in the Cisbio IP-One Tb kit instructions. The EC50 values of various test example compounds in influencing human calcium-sensing receptor was calculated by software after the raw data of the example compounds were collected, so as to evaluate the agonist activity of the example compounds on human calcium-sensing receptor.
HTRF signal was read by an EnVision detector with an excitation wavelength of 320 nm and emission wavelengths of 620 nm and 665 nm. The signal ratio (665 nm/620 nm×10,000) was calculated and fitted non-linearly to the sample concentration in GraphPad Prism 6 using a four-parameter equation to give EC50 values of the test example compounds 1-38.

[1] = HEK293/CaSR cells, IP-One production, 60 min at 37° C., CaCl2 1.2 mM, read-out: EC50 for calcium-sensing receptor

SMILES	EC50 [1] [µM]	EC50 [µM]
CC(=O)N[C@H](CSSC[C@H](N)C(=O)O)C(=O)N[C@H](Cc1ccc(C)cc1)C(=O)N[C@H](CCCNC(=N)N)C(=O)N[C@H](CCCNC(=N)N)C(=O)N[C@H](CCCNC(=N)N)C(=O)N[C@H](C)C(=O)N[C@H](CCCNC(=N)N)C(N)=O [Compound 3, Ac-c(C)-[D-Phe(4-CH3)]-r-r-r-a-r-NH2] (Ac-[dC](Cys(free,S-linked))[dPhe(4-Me)][dR][dR][dR][dA][dR]-NH2)	15.3	
CC(=O)N[C@H](CSSC[C@H](N)C(=O)O)C(=O)N[C@H](Cc1c[nH]c2ccccc12)C(=O)N[C@H](CCCNC(=N)N)C(=O)N[C@H](CCCNC(=N)N)C(=O)N[C@H](CCCNC(=N)N)C(=O)NCC(=O)N[C@H](CCCNC(=N)N)C(N)=O [Compound 9, Ac-c(C)-w-r-r-r-G-r-NH2] (Ac-[dC](Cys(free,S-linked))[dW][dR][dR][dR]G[dR]-NH2)	3.16	
CC(=O)N[C@H](CSSC[C@H](N)C(=O)O)C(=O)N[C@H](CCCNC(=N)N)C(=O)N[C@H](CCCNC(=N)N)C(=O)N[C@H](Cc1ccc([N+](=O)[O-])cc1)C(=O)N[C@H](CCCNC(=N)N)C(=O)N[C@H](C)C(=O)N[C@H](CCCNC(=N)N)C(N)=O [Compound 14, Ac-c(C)-r-r-[D-Phe(4-NO2)]-r-a-r-NH2] (Ac-[dC](Cys(free,S-linked))[dR][dR][dPhe(4-NO2)][dR][dA][dR]-NH2)	4.33	
CC(=O)N[C@H](CSSC[C@H](N)C(=O)O)C(=O)N[C@H](CCCNC(=N)N)C(=O)N[C@H](CCCNC(=N)N)C(=O)N[C@H](Cc1ccc2ccccc2c1)C(=O)N[C@H](CCCNC(=N)N)C(=O)N[C@H](C)C(=O)N[C@H](CCCNC(=N)N)C(N)=O [Compound 15, Ac-c(C)-r-r-(D-2-NaI)-r-a-r-NH2] (Ac-[dC](Cys(free,S-linked))[dR][dR][d2Nal][dR][dA][dR]-NH2)	5.59	
CC(=O)N[C@H](CSSC[C@H](N)C(=O)O)C(=O)N[C@H](CCCNC(=N)N)C(=O)N[C@H](CCCNC(=N)N)C(=O)N[C@H](CCC(N)=O)C(=O)N[C@H](CCCNC(=N)N)C(=O)NCC(=O)N[C@H](CCCNC(=N)N)C(N)=O [Compound 23, Ac-c(C)-r-r-q-r-G-r-NH2] (Ac-[dC](Cys(free,S-linked))[dR][dR][dQ][dR]G[dR]-NH2)	30.4	
CC(=O)N[C@H](CSSC[C@H](N)C(=O)O)C(=O)N[C@H](CCCNC(=N)N)C(=O)N[C@H](CCCNC(=N)N)C(=O)N[C@H](Cc1c[nH]cn1)C(=O)N[C@H](CCCNC(=N)N)C(=O)NCC(=O)N[C@H](CCCNC(=N)N)C(N)=O [Compound 28, Ac-c(C)-r-r-h-r-G-r-NH2] (Ac-[dC](Cys(free,S-linked))[dR][dR][dH][dR]G[dR]-NH2)	21.5	
CC(=O)N[C@H](CSSC[C@H](N)C(=O)O)C(=O)N[C@H](CCCNC(=N)N)C(=O)N[C@H](CCCNC(=N)N)C(=O)N[C@@H](C(=O)N[C@H](CCCNC(=N)N)C(=O)NCC(=O)N[C@H](CCCNC(=N)N)C(N)=O)C1CCCCC1 [Compound 36, Ac-c(C)-r-r-(D-Chg)-r-G-r-NH2] (Ac-[dC](Cys(free,S-linked))[dR][dR][dChg][dR]G[dR]-NH2)	17.9	
CC(=O)N[C@H](CSSC[C@H](N)C(=O)O)C(=O)N[C@H](CCCNC(=N)N)C(=O)N[C@H](CCCNC(=N)N)C(=O)N[C@@H](C(=O)N[C@H](CCCNC(=N)N)C(=O)NCC(=O)N[C@H](CCCNC(=N)N)C(N)=O)C(C)(C)C [Compound 38, Ac-c(C)-r-r-(D-Tle)-r-G-r-NH2] (Ac-[dC](Cys(free,S-linked))[dR][dR][dTle][dR]G[dR]-NH2)	18.7	
CC(=O)N[C@H](CSSC[C@H](N)C(=O)O)C(=O)N[C@H](CCCNC(=N)N)C(=O)N[C@H](CCCNC(=N)N)C(=O)N[C@H](C)C(=O)N[C@H](CCCNC(=N)N)C(=O)N[C@H](C)C(=O)N[C@H](CCCNC(=N)N)C(N)=O [Etelcalcetide analogue, Ac-c(C)-r-r-a-r-a-r-NH2, reference compound] (Ac-[dC](Cys(free,S-linked))[dR][dR][dA][dR][dA][dR]-NH2)		6.74

Reference: US20230041996A1, “CALCIUM-SENSING RECEPTOR AGONIST COMPOUND AND APPLICATION THEREOF” (BEIJING TUO JIE BIOPHARMACEUTICAL CO. LTD., priority 2019, published 2023)
